Results from patent publication US20230295197A1, “STAT5 and STAT6 Degraders and Uses Thereof” (REGENTS OF THE UNIVERSITY OF MICHICAN, priority 2022, published 2023).
Where two headings read alike, the source gives them in different places.

Molecular target: T1, STAT6 (Homo sapiens, UniProt P42226)
T1 construct: endogenous in cells; host or cells: MOLM-16, KU-812, SKNO1, MB231, L1236
T1 sequence (P42226 1-847): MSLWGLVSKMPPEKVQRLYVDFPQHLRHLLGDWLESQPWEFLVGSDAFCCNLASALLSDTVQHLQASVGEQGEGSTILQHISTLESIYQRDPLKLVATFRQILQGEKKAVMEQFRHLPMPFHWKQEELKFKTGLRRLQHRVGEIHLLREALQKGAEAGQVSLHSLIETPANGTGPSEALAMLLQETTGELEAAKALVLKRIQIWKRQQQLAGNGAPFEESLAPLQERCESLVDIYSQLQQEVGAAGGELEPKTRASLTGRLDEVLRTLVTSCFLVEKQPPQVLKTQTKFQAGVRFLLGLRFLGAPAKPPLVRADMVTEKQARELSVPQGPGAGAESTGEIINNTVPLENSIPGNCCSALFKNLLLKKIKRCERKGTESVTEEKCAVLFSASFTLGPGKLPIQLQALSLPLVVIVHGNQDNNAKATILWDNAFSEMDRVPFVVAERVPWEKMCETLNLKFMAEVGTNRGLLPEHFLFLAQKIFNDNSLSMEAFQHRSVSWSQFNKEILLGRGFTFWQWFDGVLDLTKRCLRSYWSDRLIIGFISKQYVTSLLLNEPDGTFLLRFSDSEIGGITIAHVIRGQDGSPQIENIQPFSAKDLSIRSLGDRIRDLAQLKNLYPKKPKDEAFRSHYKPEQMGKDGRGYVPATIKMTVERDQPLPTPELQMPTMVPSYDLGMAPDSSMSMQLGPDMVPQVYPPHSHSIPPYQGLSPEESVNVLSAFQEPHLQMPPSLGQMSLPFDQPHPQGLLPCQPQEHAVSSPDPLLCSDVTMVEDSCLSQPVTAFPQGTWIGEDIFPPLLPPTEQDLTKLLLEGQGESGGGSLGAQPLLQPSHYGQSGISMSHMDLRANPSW
Test: Immunoblotting (Western blot) analysis of STAT6 degradation efficiency of degraders in treated cells
Type: cell-based
Method in brief: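 About 1 million cells per point, grown in 10% FBS medium at 37 °C/5% CO2, were exposed to compound at the indicated concentrations and times, then lysed in RIPA buffer with protease and phosphatase inhibitors. Equal protein (20-40 μg) was resolved by SDS-PAGE, blotted to PVDF, and probed with anti-STAT5, anti-STAT6 and anti-GAPDH antibodies.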

[1] = L1236 cells, read-out: DC50 S6 L1236
[2] = MOLM-16 cells, class symbols, read-out: DC50 S6 MOLM-16

DC50 [2] [µM]	Compound	DC50 [1] [µM]
< 0.1	CC(C)(C)[C@H](NC(=O)c1cc2cc(C(F)(F)P(=O)(O)O)ccc2s1)C(=O)N1C[C@@H](OCCCCCCC#Cc2cccc3c2CN(C2CCC(=O)NC2=O)C3=O)C[C@H]1C(=O)N1CCS(=O)(=O)C(c2ccccc2)C1 (stereo partly drawn) [Compound 607, ((2-(((2S)-1-((2S,4S)-2-(1,1-dioxido-2-phenylthiomorpholine-4-carbonyl)-4-((8-(2-(2,6-dioxopiperidin-3-yl)-1-oxoisoindolin-4-yl)oct-7-yn-1-yl)oxy)pyrrolidin-1-yl)-3,3-dimethyl-1-oxobutan-2-yl)carbamoyl)benzo[b]thiophen-5-yl)difluoromethyl)phosphonic acid]	
> 10	CC(C)(C)[C@H](NC(=O)c1cc2cc(C(F)(F)P(=O)(O)O)ccc2s1)C(=O)N1Cc2cc(OCC(=O)NCCC#Cc3ccc4c(c3)C(=O)N(C3CCC(=O)NC3=O)C4=O)ccc2C[C@H]1C(=O)N1CCO[C@H](c2ccccc2)C1 (stereo partly drawn) [Compound 538, ((2-(((2S)-1-((3S)-7-(2-((4-(2-(2,6-dioxopiperidin-3-yl)-1,3-dioxoisoindolin-5-yl)but-3-yn-1-yl)amino)-2-oxoethoxy)-3-((R)-2-phenylmorpholine-4-carbonyl)-3,4-dihydroisoquinolin-2(1H)-yl)-3,3-dimethyl-1-oxobutan-2-yl)carbamoyl)benzo[b]thiophen-5-yl)difluoromethyl)phosphonic acid]	
1 to 10	CC(C)(C)[C@H](NC(=O)c1cc2cc(C(F)(F)P(=O)(O)O)ccc2s1)C(=O)N1C[C@@H](OCCCCCC(=O)N2Cc3cc4c(cc3C2)C(=O)N(C2CCC(=O)NC2=O)C4)C[C@H]1C(=O)N1CCO[C@H](c2ccccc2)C1 (stereo partly drawn) [Compound 590, ((2-(((2S)-1-((2S,4S)-4-((6-(6-(2,6-dioxopiperidin-3-yl)-5-oxo-3,5,6,7-tetrahydropyrrolo[3,4-f]isoindol-2(1H)-yl)-6-oxohexyl)oxy)-2-((R)-2-phenylmorpholine-4-carbonyl)pyrrolidin-1-yl)-3,3-dimethyl-1-oxobutan-2-yl)carbamoyl)benzo[b]thiophen-5-yl)difluoromethyl)phosphonic acid]	
> 10	CC(C)(C)[C@H](NC(=O)c1cc2cc(C(F)(F)P(=O)(O)O)ccc2s1)C(=O)N1Cc2cc(OCC(=O)NCCCCCCCCCC#Cc3cccc4c3C(=O)N(C3CCC(=O)NC3=O)C4=O)ccc2C[C@H]1C(=O)N1CCO[C@H](c2ccccc2)C1 (stereo partly drawn) [Compound 547, ((2-(((2S)-1-((3S)-7-(2-((11-(2-(2,6-dioxopiperidin-3-yl)-1,3-dioxoisoindolin-4-yl)undec-10-yn-1-yl)amino)-2-oxoethoxy)-3-((R)-2-phenylmorpholine-4-carbonyl)-3,4-dihydroisoquinolin-2(1H)-yl)-3,3-dimethyl-1-oxobutan-2-yl)carbamoyl)benzo[b]thiophen-5-yl)difluoromethyl)phosphonic acid]	
> 10	CC(C)(C)[C@H](NC(=O)c1cc2cc(C(F)(F)P(=O)(O)O)ccc2s1)C(=O)N1Cc2cc(OCC(=O)NCCCCCCCCC#Cc3ccc4c(c3)C(=O)N(C3CCC(=O)NC3=O)C4=O)ccc2C[C@H]1C(=O)N1CCC[C@H](c2ccccc2)C1 (stereo partly drawn) [Compound 560, ((2-(((2S)-1-((3S)-7-(2-((10-(2-(2,6-dioxopiperidin-3-yl)-1,3-dioxoisoindolin-5-yl)dec-9-yn-1-yl)amino)-2-oxoethoxy)-3-((R)-3-phenylpiperidine-1-carbonyl)-3,4-dihydroisoquinolin-2(1H)-yl)-3,3-dimethyl-1-oxobutan-2-yl)carbamoyl)benzo[b]thiophen-5-yl)difluoromethyl)phosphonic acid]	

More lines, now with the values behind:

Compound	DC50 [2] [µM]	DC50 [1] [µM]
Cc1ncsc1-c1ccc([C@H](C)NC(=O)[C@@H]2C[C@@H](O)CN2C(=O)[C@@H](NC(=O)CCCCCNC(=O)CO[C@H]2C[C@@H](C(=O)N3CCC[C@H](c4ccccc4)C3)N(C(=O)[C@@H](NC(=O)c3cc4cc(C(F)(F)P(=O)(O)O)ccc4s3)C(C)(C)C)C2)C(C)(C)C)cc1 [Compound 438, (difluoro(2-(((S)-1-((2S,4S)-4-(2-((6-(((S)-1-((2S,4R)-4-hydroxy-2-(((S)-1-(4-(4-methylthiazol-5-yl)phenyl)ethyl)carbamoyl)pyrrolidin-1-yl)-3,3-dimethyl-1-oxobutan-2-yl)amino)-6-oxohexyl)amino)-2-oxoethoxy)-2-((R)-3-phenylpiperidine-1-carbonyl)pyrrolidin-1-yl)-3,3-dimethyl-1-oxobutan-2-yl)carbamoyl)benzo[b]thiophen-5-yl)methyl)phosphonic acid]	> 10	> 10
Cc1ncsc1-c1ccc([C@H](C)NC(=O)[C@@H]2C[C@@H](O)CN2C(=O)[C@@H](NC(=O)CCCCCCCCNC(=O)CO[C@H]2C[C@@H](C(=O)N3CCC[C@H](c4ccccc4)C3)N(C(=O)[C@@H](NC(=O)c3cc4cc(C(F)(F)P(=O)(O)O)ccc4s3)C(C)(C)C)C2)C(C)(C)C)cc1 [Compound 441, (difluoro(2-(((S)-1-((2S,4S)-4-(2-((9-(((S)-1-((2S,4R)-4-hydroxy-2-(((S)-1-(4-(4-methylthiazol-5-yl)phenyl)ethyl)carbamoyl)pyrrolidin-1-yl)-3,3-dimethyl-1-oxobutan-2-yl)amino)-9-oxononyl)amino)-2-oxoethoxy)-2-((R)-3-phenylpiperidine-1-carbonyl)pyrrolidin-1-yl)-3,3-dimethyl-1-oxobutan-2-yl)carbamoyl)benzo[b]thiophen-5-yl)methyl)phosphonic acid]	> 10	> 10
CC(C)(C)[C@H](NC(=O)c1cc2cc(C(F)(F)P(=O)(O)O)ccc2s1)C(=O)N1CCN(C(=O)CC(=O)NCCCCCCCCC#Cc2ccc3c(c2)C(=O)N(C2CCC(=O)NC2=O)C3=O)C[C@H]1C(=O)N1CCC[C@H](c2ccccc2)C1 (stereo partly drawn) [Compound 532, ((2-(((2S)-1-((2S)-4-(3-((10-(2-(2,6-dioxopiperidin-3-yl)-1,3-dioxoisoindolin-5-yl)dec-9-yn-1-yl)amino)-3-oxopropanoyl)-2-((R)-3-phenylpiperidine-1-carbonyl)piperazin-1-yl)-3,3-dimethyl-1-oxobutan-2-yl)carbamoyl)benzo[b]thiophen-5-yl)difluoromethyl)phosphonic acid]	> 10	
CC(C)(C)[C@H](NC(=O)c1cc2cc(C(F)(F)P(=O)(O)O)ccc2s1)C(=O)N1CCN(C(=O)CC(=O)NCCCC#Cc2ccc3c(c2)C(=O)N(C2CCC(=O)NC2=O)C3=O)C[C@H]1C(=O)N1CCO[C@H](c2ccccc2)C1 (stereo partly drawn) [Compound 512, ((2-(((25)-1-((2S)-4-(3-((5-(2-(2,6-dioxopiperidin-3-yl)-1,3-dioxoisoindolin-5-yl)pent-4-yn-1-yl)amino)-3-oxopropanoyl)-2-((R)-2-phenylmorpholine-4-carbonyl)piperazin-1-yl)-3,3-dimethyl-1-oxobutan-2-yl)carbamoyl)benzo[b]thiophen-5-yl)difluoromethyl)phosphonic acid]	0.1 to 1	
Cc1ncsc1-c1ccc([C@H](C)NC(=O)[C@@H]2C[C@@H](O)CN2C(=O)[C@@H](NC(=O)CNC(=O)CO[C@H]2C[C@@H](C(=O)N3CCC[C@H](c4ccccc4)C3)N(C(=O)[C@@H](NC(=O)c3cc4cc(C(F)(F)P(=O)(O)O)ccc4s3)C(C)(C)C)C2)C(C)(C)C)cc1 [Compound 434, (difluoro(2-(((S)-1-((2S,4S)-4-(2-((2-(((S)-1-((2S,4R)-4-hydroxy-2-(((S)-1-(4-(4-methylthiazol-5-yl)phenyl)ethyl)carbamoyl)pyrrolidin-1-yl)-3,3-dimethyl-1-oxobutan-2-yl)amino)-2-oxoethyl)amino)-2-oxoethoxy)-2-((R)-3-phenylpiperidine-1-carbonyl)pyrrolidin-1-yl)-3,3-dimethyl-1-oxobutan-2-yl)carbamoyl)benzo[b]thiophen-5-yl)methyl)phosphonic acid]	> 10	> 10
CC(C)(C)[C@H](NC(=O)c1cc2cc(C(F)(F)P(=O)(O)O)ccc2s1)C(=O)N1C[C@@H](OCC(=O)NCC#Cc2ccc3c(c2)C(=O)N(C2CCC(=O)NC2=O)C3=O)C[C@H]1C(=O)N1CCC[C@H](c2ccccc2)C1 (stereo partly drawn) [Compound 494, ((2-(((2S)-1-((2S,4S)-4-(2-((3-(2-(2,6-dioxopiperidin-3-yl)-1,3-dioxoisoindolin-5-yl)prop-2-yn-1-yl)amino)-2-oxoethoxy)-2-((R)-3-phenylpiperidine-1-carbonyl)pyrrolidin-1-yl)-3,3-dimethyl-1-oxobutan-2-yl)carbamoyl)benzo[b]thiophen-5-yl)difluoromethyl)phosphonic acid]	> 10	
